# Reference: ChEMBL document CHEMBL1201862, “PubChem BioAssay data set” (2004)
#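 Protocol summary: plate cells (96-well), add compound at 5 concentrations, incubate 48 h, interpolate endpoints linearly. At the GI50, growth is halved.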 Active and inactive are the calls of the source. Cut-off read from the data, not from the text of the source: active = GI50 up to about 1.1 µM and inactive = higher.
# How the values were obtained:
# Test in all cases: inhibition of tumour cell growth, NCI panel, 48 h
# 786-0 = tested on: 786-0
# CAKI-1 = tested on: CAKI-1
# ACHN = tested on: ACHN
# K562 = tested on: K562
# HT-29 = tested on: HT-29
# RXF 393 = tested on: RXF 393
# A549 = tested on: A549
# MDA-N = tested on: MDA-N
# NCI-H23 = tested on: NCI-H23
# IGROV-1 = tested on: IGROV-1
# HOP-92 = tested on: HOP-92
# TK-10 = tested on: TK-10
# Malme-3M = tested on: Malme-3M
# HCC 2998 = tested on: HCC 2998
# SK-MEL-5 = tested on: SK-MEL-5
# SF-295 = tested on: SF-295
# UACC-62 = tested on: UACC-62
# SK-MEL-2 = tested on: SK-MEL-2
# NCI/ADR-RES = tested on: NCI/ADR-RES
# RPMI-8226 = tested on: RPMI-8226
Structure (SMILES),GI50 (786-0),GI50 (CAKI-1),GI50 (ACHN),GI50 (K562),GI50 (HT-29),GI50 (RXF 393),GI50 (A549),GI50 (MDA-N),GI50 (NCI-H23),GI50 (IGROV-1),GI50 (HOP-92),GI50 (TK-10),GI50 (Malme-3M),GI50 (HCC 2998),GI50 (SK-MEL-5),GI50 (SF-295),GI50 (UACC-62),GI50 (SK-MEL-2),GI50 (NCI/ADR-RES),GI50 (RPMI-8226)
CC1C2CC(CC(=O)N2)C1(C)C (centres undefined),> 100 µM (inactive),> 100 µM (inactive),> 100 µM (inactive),> 100 µM (inactive),> 100 µM (inactive),> 100 µM (inactive),> 100 µM (inactive),> 100 µM (inactive),> 100 µM (inactive),> 100 µM (inactive),> 100 µM (inactive),> 100 µM (inactive),> 100 µM (inactive),> 100 µM (inactive),> 100 µM (inactive),> 100 µM (inactive),> 100 µM (inactive),–,–,–
O=C(/C=C/c1ccccc1)CCC1C(=O)NC(=S)NC1=O,> 100 µM (inactive),26.5 µM (inactive),> 100 µM (inactive),> 100 µM (inactive),–,> 100 µM (inactive),> 100 µM (inactive),–,> 100 µM (inactive),–,> 100 µM (inactive),–,–,> 100 µM (inactive),> 100 µM (inactive),> 100 µM (inactive),> 100 µM (inactive),> 100 µM (inactive),> 100 µM (inactive),–
COc1cccc2c1NC(=O)Cc1c-2[nH]c2ccccc12,> 100 µM (inactive),> 100 µM (inactive),> 100 µM (inactive),53.1 µM (inactive),47.6 µM (inactive),> 100 µM (inactive),> 100 µM (inactive),–,81.5 µM (inactive),> 100 µM (inactive),> 100 µM (inactive),> 100 µM (inactive),> 100 µM (inactive),> 100 µM (inactive),41.9 µM (inactive),> 100 µM (inactive),> 100 µM (inactive),> 100 µM (inactive),82.2 µM (inactive),31.2 µM (inactive)
CC1CC(C)(C)CC(OCCN2CCCCC2)(c2ccccc2)C1 (centres undefined),10.1 µM (inactive),12.7 µM (inactive),15.9 µM (inactive),13 µM (inactive),1.89 µM (inactive),10.9 µM (inactive),11 µM (inactive),–,10.3 µM (inactive),13.2 µM (inactive),8.17 µM (inactive),13.3 µM (inactive),10.4 µM (inactive),–,10 µM (inactive),10.7 µM (inactive),15.6 µM (inactive),17.8 µM (inactive),14.4 µM (inactive),4.51 µM (inactive)
Oc1ccc(CCc2cc(O)cc(O)c2)cc1 [DIHYDRORESVERATROL],> 100 µM (inactive),> 100 µM (inactive),79.4 µM (inactive),80.7 µM (inactive),> 100 µM (inactive),> 100 µM (inactive),> 100 µM (inactive),–,> 100 µM (inactive),> 100 µM (inactive),> 100 µM (inactive),> 100 µM (inactive),> 100 µM (inactive),–,> 100 µM (inactive),> 100 µM (inactive),47.1 µM (inactive),> 100 µM (inactive),> 100 µM (inactive),23.4 µM (inactive)
O=C1c2cc3c(cc2CC12Cc1cc4c(cc1C2=O)CCC4)CCC3,> 100 µM (inactive),> 100 µM (inactive),> 100 µM (inactive),> 100 µM (inactive),> 100 µM (inactive),21.8 µM (inactive),> 100 µM (inactive),–,> 100 µM (inactive),> 100 µM (inactive),–,> 100 µM (inactive),> 100 µM (inactive),> 100 µM (inactive),> 100 µM (inactive),> 100 µM (inactive),> 100 µM (inactive),> 100 µM (inactive),> 100 µM (inactive),> 100 µM (inactive)
O=S1(=O)N2CN3CN(C2)CN1C3,30.5 µM (inactive),205 µM (inactive),108 µM (inactive),> 31.6 µM (inactive),26 µM (inactive),56.9 µM (inactive),280 µM (inactive),–,20.5 µM (inactive),278 µM (inactive),> 100 µM (inactive),286 µM (inactive),129 µM (inactive),255 µM (inactive),32.4 µM (inactive),23.8 µM (inactive),22.6 µM (inactive),141 µM (inactive),> 100 µM (inactive),28.7 µM (inactive)
C=C(c1ccccc1)[C@@]1(O)CCCC[C@H]1NC(c1ccccc1)c1ccccc1,12.7 µM (inactive),7.67 µM (inactive),11.7 µM (inactive),7.69 µM (inactive),11.7 µM (inactive),7.89 µM (inactive),11.8 µM (inactive),–,8.3 µM (inactive),16.2 µM (inactive),12.6 µM (inactive),16.3 µM (inactive),16.1 µM (inactive),12.6 µM (inactive),9.51 µM (inactive),12.1 µM (inactive),13.1 µM (inactive),13.3 µM (inactive),–,3.94 µM (inactive)
CC(CC[C@@H](C)C1CCC2[C@@H]3CC(O)C4CC(O)[C@@H](O)C[C@]4(C)C3CC[C@@]21C)C(C)(C)C (some centres undefined),> 100 µM (inactive),> 100 µM (inactive),> 100 µM (inactive),> 100 µM (inactive),> 100 µM (inactive),> 100 µM (inactive),> 100 µM (inactive),–,> 100 µM (inactive),> 100 µM (inactive),> 100 µM (inactive),> 100 µM (inactive),> 100 µM (inactive),> 100 µM (inactive),> 100 µM (inactive),> 100 µM (inactive),> 100 µM (inactive),> 100 µM (inactive),–,> 100 µM (inactive)
CC(=O)CC(=O)Nc1ccc(OS(N)(=O)=O)cc1,> 100 µM (inactive),> 100 µM (inactive),> 100 µM (inactive),> 100 µM (inactive),> 100 µM (inactive),> 100 µM (inactive),> 100 µM (inactive),–,> 100 µM (inactive),> 100 µM (inactive),> 100 µM (inactive),> 100 µM (inactive),> 100 µM (inactive),> 100 µM (inactive),> 100 µM (inactive),> 100 µM (inactive),> 100 µM (inactive),> 100 µM (inactive),–,> 100 µM (inactive)
COc1cc(/C=C2\[C@@H]3NC(Cc4c(OC)c(C)c(OC)c(OC)c43)C(=O)N2Cc2ccccc2)c(OC)c(C)c1OC,48.6 µM (inactive),48 µM (inactive),44 µM (inactive),34.3 µM (inactive),24.9 µM (inactive),23 µM (inactive),41.5 µM (inactive),–,49.7 µM (inactive),34.1 µM (inactive),20 µM (inactive),40.6 µM (inactive),28.2 µM (inactive),38.6 µM (inactive),34.1 µM (inactive),40.8 µM (inactive),47.5 µM (inactive),19.9 µM (inactive),–,29.8 µM (inactive)
COc1ccc(CCNCc2cccc(OC)c2OC)cc1OC,> 100 µM (inactive),> 100 µM (inactive),> 100 µM (inactive),> 100 µM (inactive),88.7 µM (inactive),> 100 µM (inactive),> 100 µM (inactive),–,> 100 µM (inactive),> 100 µM (inactive),38.1 µM (inactive),> 100 µM (inactive),> 100 µM (inactive),> 100 µM (inactive),> 100 µM (inactive),> 100 µM (inactive),> 100 µM (inactive),> 100 µM (inactive),–,> 100 µM (inactive)
CCOC(=O)COc1ccccc1/C=C1\CCC(CN(C)C)C1=O (centres undefined),2.94 µM (inactive),3.02 µM (inactive),13.9 µM (inactive),1.49 µM (inactive),5.86 µM (inactive),2.93 µM (inactive),21.5 µM (inactive),–,8.41 µM (inactive),13.3 µM (inactive),10.9 µM (inactive),12.9 µM (inactive),5.19 µM (inactive),2.46 µM (inactive),10.4 µM (inactive),16.1 µM (inactive),6.05 µM (inactive),10.6 µM (inactive),3.48 µM (inactive),0.902 µM (active)
C[C@]12CC[C@H](O)CC1=CC[C@@H]1C2CC[C@]2(C)C(=O)NC(=O)CC12 (some centres undefined),55.5 µM (inactive),> 100 µM (inactive),> 100 µM (inactive),29 µM (inactive),82.2 µM (inactive),> 100 µM (inactive),> 100 µM (inactive),–,> 100 µM (inactive),96.8 µM (inactive),> 100 µM (inactive),> 100 µM (inactive),92.5 µM (inactive),> 100 µM (inactive),> 100 µM (inactive),> 100 µM (inactive),> 100 µM (inactive),64.7 µM (inactive),–,23 µM (inactive)
CCCCCCC(=O)OC[n+]1ccc(-c2c(COC(=O)NC(C)C)c(COC(=O)NC(C)C)c3n2CCC3)cc1,39.6 µM (inactive),30.8 µM (inactive),41 µM (inactive),> 100 µM (inactive),> 100 µM (inactive),> 65.8 µM (inactive),> 87.7 µM (inactive),–,48.9 µM (inactive),> 100 µM (inactive),63.5 µM (inactive),> 100 µM (inactive),> 64.7 µM (inactive),> 100 µM (inactive),> 100 µM (inactive),> 75.2 µM (inactive),37.1 µM (inactive),> 100 µM (inactive),> 100 µM (inactive),38.5 µM (inactive)
